Assay results reported in ChEMBL document CHEMBL3112455, “Synthesis of 6-tetrazolyl-substituted sulfocoumarins acting as highly potent and selective inhibitors of the tumor-associated carbonic anhydrase isoforms IX and XII” (Bioorg Med Chem, 2014).

What was measured:
Carbonic anhydrase 1 = Carbonic anhydrase 1 (Homo sapiens, UniProt P00915); assay: Inhibition of human recombinant cytosolic carbonic anhydrase 1 after 6 hrs by stopped flow CO2 hydration method
Carbonic anhydrase 2 = Carbonic anhydrase 2 (Homo sapiens, UniProt P00918); assay: Inhibition of human recombinant cytosolic carbonic anhydrase 2 after 6 hrs by stopped flow CO2 hydration method
Carbonic anhydrase 9 = Carbonic anhydrase 9 (Homo sapiens, UniProt Q16790)
Description: Inhibition of human recombinant transmembrane carbonic anhydrase 9 after 6 hrs by stopped flow CO2 hydration method

Carbonic anhydrase 12 = Carbonic anhydrase 12 (Homo sapiens, UniProt O43570); assay: Inhibition of human recombinant transmembrane carbonic anhydrase 12 after 6 hrs by stopped flow CO2 hydration method
Chain of Carbonic anhydrase 12 (O43570 whole entry): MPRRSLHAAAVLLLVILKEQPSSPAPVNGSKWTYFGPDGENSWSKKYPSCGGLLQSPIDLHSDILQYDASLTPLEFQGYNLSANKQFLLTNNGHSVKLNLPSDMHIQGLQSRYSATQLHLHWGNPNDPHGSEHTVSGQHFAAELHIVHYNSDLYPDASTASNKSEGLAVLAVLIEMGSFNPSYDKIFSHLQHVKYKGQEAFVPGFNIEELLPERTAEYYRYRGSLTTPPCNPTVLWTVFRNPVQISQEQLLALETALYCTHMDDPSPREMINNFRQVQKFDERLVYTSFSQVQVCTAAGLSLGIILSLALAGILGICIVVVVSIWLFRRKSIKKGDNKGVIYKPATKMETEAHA

Chain of Carbonic anhydrase 1 (P00915 whole entry): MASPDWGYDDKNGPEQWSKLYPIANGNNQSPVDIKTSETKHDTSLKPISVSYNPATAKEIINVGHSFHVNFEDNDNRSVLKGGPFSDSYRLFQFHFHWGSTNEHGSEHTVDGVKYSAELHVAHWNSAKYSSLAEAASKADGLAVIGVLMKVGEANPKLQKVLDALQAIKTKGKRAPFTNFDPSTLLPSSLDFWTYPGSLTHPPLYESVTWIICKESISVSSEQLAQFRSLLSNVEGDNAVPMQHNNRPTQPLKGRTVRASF

Row | Ki (Carbonic anhydrase 1) [µM] | Ki (Carbonic anhydrase 2) [µM] | Ki (Carbonic anhydrase 12) [µM] | SMILES | Ki (Carbonic anhydrase 9) [µM]
1 | > 10 | > 10 | – | Cc1nnnn1-c1ccc2c(c1)C=CS(=O)(=O)O2 | –
2 | > 10 | > 10 | – | O=S1(=O)C=Cc2cc(-c3nnnn3-c3cccc(Br)c3)ccc2O1 | 0.0568
3 | > 10 | > 10 | – | O=S1(=O)C=Cc2cc(-n3cnnn3)ccc2O1 | –
4 | > 10 | > 10 | – | O=S1(=O)C=Cc2cc(-c3nnnn3-c3cccc4ccccc34)ccc2O1 | –
5 | > 10 | > 10 | 0.0054 | O=S1(=O)C=Cc2cc(-c3nnnn3-c3ccc(F)c(Cl)c3)ccc2O1 | 0.0069
6 | > 10 | > 10 | – | Cc1ccc(-n2nnnc2-c2ccc3c(c2)C=CS(=O)(=O)O3)cc1 | 0.0091
7 | > 10 | > 10 | – | O=S1(=O)C=Cc2cc(-c3nnnn3-c3ccccc3)ccc2O1 | –
8 | > 10 | > 10 | – | COc1ccc(-n2nnnc2-c2ccc3c(c2)C=CS(=O)(=O)O3)cc1 | 0.0087

Row | SMILES | Ki (Carbonic anhydrase 1) [µM] | Ki (Carbonic anhydrase 2) [µM] | Ki (Carbonic anhydrase 12) [µM] | Ki (Carbonic anhydrase 9) [µM]
9 | Cc1cccc(-n2nnnc2-c2ccc3c(c2)C=CS(=O)(=O)O3)c1 | > 10 | > 10 | – | 0.0271
10 | O=S1(=O)C=Cc2cc(-c3nnnn3-c3ccc(Cl)c(Cl)c3)ccc2O1 | > 10 | > 10 | – | 0.0082
11 | O=S1(=O)C=Cc2cc(-c3nnnn3-c3ccc(C(F)(F)F)cc3)ccc2O1 | > 10 | > 10 | – | 0.0393
12 | O=S1(=O)C=Cc2cc(-c3nnnn3-c3ccc(Cl)cc3)ccc2O1 | > 10 | > 10 | – | 0.0088
